Key:
Type in all cases: cell-based
[1] = system: Rhizopus oryzae JCM14625 strain (=NBRC 5384); test: LDH activity evaluation-1: mycelia prepared from spores in surfactant-supplemented PDB medium, LDH activity of fungus body extract
Experimental: A loopful of a cryopreserved spore suspension sample (−80° C.) of a Rhizopus oryzae JCM14625 strain (=NBRC 5384) obtained from a culture collection Riken BioResource Center (BRC) was inoculated to a PDA medium (Difco Potato Dextrose Agar, manufactured by Becton, Dickinson and Company) and then statically cultured at 30° C. for from 7 to 10 days. After visual confirmation of hyphal growth and blackening at the ends of hyphae associated with sporulation, from 30 to 40 mL of saline was added thereto. Spores, together with hyphae, were collected into a 50-mL centrifugal tube with a lid (manufactured by Greiner bio-one) using a platinum loop and then vigorously mixed in the tube. The spore suspension thus mixed was filtered through 3GP100 cylindrical funnel-shaped glass filter (manufactured by Shibata Scientific Technology Ltd.). The resulting filtrate was used as a spore solution. The number of spores in the spore solution was measured using a hemocytometer (D=1/50 mm· 1/400 mm^2) after appropriate dilution with saline.
80 mL of a PDB medium non-supplemented or supplemented with 0.5% (w/v) (final concentration) of each surfactant described below was applied to a 200-mL baffled Erlenmeyer flask (manufactured by Asahi Glass Co., Ltd.). The Rhizopus oryzae spore suspension prepared in Production Example 1 was inoculated thereto at a dose of 1×10^3 spores/mL of the medium and then cultured at 27° C. for 3 days with stirring at 170 rpm. Since mycelia would remain on the filter, the cultures were filtered through a stainless sieve of 250 μm in mesh size (manufactured by AS ONE Corp.) sterilized in advance to recover fungus bodies onto the filter.
From3.0 to 4.0 g (wet weight) of the recovered fungus bodies was inoculated to 100 mL of an inorganic culture medium (composition: 10% glucose, 0.1% ammonium sulfate, 0.06% potassium dihydrogen phosphate, 0.025% magnesium sulfate heptahydrate, 0.009% zinc sulfate heptahydrate, and 5.0% calcium carbonate; all the concentrations mean % (w/v)) applied to a 500-mL Erlenmeyer flask, and then cultured at 27° C. for approximately 40 hours with stirring at 220 rpm. Subsequently, the cultures thus obtained by culture in the inorganic culture medium were filtered using a stainless screen filter holder (manufactured by EMD Millipore) sterilized in advance to recover fungus bodies onto the filter. On this filter holder, the fungus bodies were further washed with 100 mL of saline. The saline used in washing was removed by suction filtration. The obtained fungus bodies were used in the following LDH activity evaluation and evaluation of the ability to fermentatively produce lactic acid.
6.0 g of the wet fungus bodies of the genus Rhizopus obtained in Production Example 3 was inoculated to 40 mL of an inorganic culture medium for lactic acid production evaluation (composition: 8.0% glucose, 0.1% ammonium sulfate, 0.06% potassium dihydrogen phosphate, 0.025% magnesium sulfate heptahydrate, 0.009% zinc sulfate heptahydrate, and 5.0% calcium carbonate; all the concentrations mean % (w/v)) applied to a 200-mL Erlenmeyer flask, and then cultured at 35° C. with stirring at 170 rpm. After 4.5-hour culture of the fungus bodies of the genus Rhizopus with stirring, the fungus bodies were filtered using a stainless screen filter holder (manufactured by EMD Millipore) sterilized in advance to recover fungus bodies onto the filter. On this filter holder, the fungus bodies were further washed with 100 mL of saline. The saline used in washing was removed by suction filtration. 0.3 g of the obtained fungus bodies was recovered into a 3-mL disruption tube (manufactured by Yasui Kikai Corp.). Metal cone for 3 mL (manufactured by Yasui Kikai Corp.) was added to the tube, which was then capped and then frozen in liquid nitrogen. The frozen 3-mL disruption tube was applied to Multi-Beads Shocker (manufactured by Yasui Kikai Corp.). The fungus bodies were disrupted at 1700 rpm for 10 seconds.

[2] = system: Rhizopus oryzae NBRC 4785; test: Evaluation of ability to produce lactic acid-2, strain NBRC 4785; conditions: 0.5% (w/v) at spore germination, control of the strain without surfactant = 100
Experimental: (§1) (1) Spore suspensions were prepared in the same way as in Production Example 1 using Rhizopus oryzae NBRC 4707, NBRC 4785, NBRC 5384 (=JCM14625), and NBRC 5418 strains obtained from a culture collection NBRC.
(§2) (2) Mycelia were prepared from the spores of each strain under the same conditions as in Production Example 2 involving stirring at 100 rpm using 60 mL of a PDB medium non-supplemented or supplemented with 0.5% (w/v) (final concentration) of the surfactant sorbitan monolaurate (Rheodol(R) SP-L10, manufactured by Kao Corp.).
(§3) (3) The total amount of the fungus bodies obtained in (2) was inoculated to 100 mL of an inorganic culture medium under the same conditions as in Production Example 3 to grow the mycelia. […]
(§4) 30 g of the prepared wet fungus bodies of each strain of the genus Rhizopus was inoculated to 100 mL of an inorganic culture medium for lactic acid production evaluation (composition: 12.5% glucose, 0.1% ammonium sulfate, 0.06% potassium dihydrogen phosphate, 0.025% magnesium sulfate heptahydrate, 0.009% zinc sulfate heptahydrate, and 6.25% calcium carbonate; all the concentrations mean % (w/v)) applied to a 500-mL Erlenmeyer flask, and then cultured at 33.5° C. with stirring at 170 rpm. The production rate of lactic acid was determined by the same procedures as in Test Example 2. […]

[3] = system: Rhizopus oryzae NBRC 5384 (=JCM14625); test: Evaluation of ability to produce lactic acid-2, strain NBRC 5384; conditions: 0.5% (w/v) at spore germination, control of the strain without surfactant = 100
Experimental: as §1, §2, §3, §4

[4] = system: Rhizopus oryzae NBRC 5418; test: Evaluation of ability to produce lactic acid-2, strain NBRC 5418; conditions: 0.5% (w/v) at spore germination, control of the strain without surfactant = 100
Experimental: as §1, §2, §3, §4

## Sorbitan monolaurate
[1]; 0.5% (w/v) surfactant at spore germination, versus medium non-supplemented with the surfactant
  LDH activity compared with control fungus bodies (in words): higher LDH activity
[1]; 0.5% (w/v) surfactant in PDB medium at spore germination, LDH activity in the absence of the surfactant = 100
  LDH activity (relative value): 267 relative value
[2]
  Production rate of lactic acid (relative value): 170 relative value
[3]
  Production rate of lactic acid (relative value): 130 relative value
[4]
  Production rate of lactic acid (relative value): 135 relative value

From patent publication US20150125915A1, “Method for Producing Lactic Acid” (Kao Corporation, priority 2012, published 2015)
